Data on 25 compounds can be found in EP4644375A1, “SUBSTITUTED HYDROQUINOLINES FOR THE TREATMENT OF GLIOBLASTOMA MULTIFORME” (Molius Saglik Teknolojileri Anonim Sirketi, priority 2024, dated 2025).

In test [1] the test system is U138-MG human glioma cell. The experiment in a line: Cell proliferation analysis (MTT). Format: cell-based. The note with it: MTT; for activity at 10 µM / inhibition at 10 µM: Homo sapiens, 48 h. As for the experimental part:
(§1) U87-MG and U138-MG human glioma cell, were incubated with 10% fetal bovine serum (FBS) (Gibco, 10500-064), 1% L-glutamine (Gibco, 25030-024), in a humidified incubator with 5% CO2 at 37 °C. The cells were contained in DMEM High Glucose (Gibco, 41966-029) supplemented with 1% penicillin-streptomycin (P/S) (Gibco 15140-122) solution. The cytotoxic effects of the target compounds on U87-MG and U138-MG cell lines were assessed using the MTT (Thiazolyl Blue Tetrazolium Bromide) method. 7×10^3 cells were seeded into a 96-well plate in 100 µl DMEM High Glucose 10% FBS and 1% P/S. 24 hours after cell incubation, each target compound was added at a dose of 10 µM and the drug treatment was carried out for two days. After the incubation period, 10 µL of MTT solution was added to each well (5 mg/ml in PBS). After 2 hours, MTT solutions were removed from the wells. Then, 100 µl DMSO was added, and mixed to dissolve the formazan crystals. Cell proliferation was analysed by measuring the absorbance of dissolved formazan at a wavelength of 570 nm.
(§2) IC50 values were determined using the same method as above wherein the cells were treated with the target compounds at different doses.

A further test deals with U87-MG human glioma cell. The experiment in a line: Cell proliferation analysis (MTT). Format: cell-based. The note with it: MTT; for activity at 10 µM / inhibition at 10 µM: Homo sapiens, U-87 MG, 48 h. How it is done: as §1, §2

For `O=C1CCc2cc(OCC3CC(c4ccc(Cl)cc4)=NO3)ccc2N1` (stereo not shown) [TR-G070, 6-((3-(4-chlorophenyl)-4,5-dihydroisoxazol-5-yl)methoxy)-3,4-dihydroquinolin-2(1H)-one], in test [1] (10 µM, two days), the activity at 10 µM worked out at 79% and the inhibition (commonly the drop in the measured response relative to a control, in per cent) at 10 µM turned out to be 21%. Moreover, in the test with U87-MG human glioma cell (10 µM, two days), the activity at 10 µM worked out at 68% and the inhibition at 10 µM is 33%.

`CC(C)CCn1cc(COc2ccc3c(c2)CCC(=O)N3)nn1` [TR-G052, 6-((1-isopentyl-1H-1,2,3-triazol-4-yl)methoxy)-3,4-dihydroquinolin-2(1H)-one]: in test [1] (10 µM, two days), the activity at 10 µM came to 52% and the inhibition at 10 µM is 48%. In the test on U87-MG human glioma cell (10 µM, two days), the activity at 10 µM was found to be 85% and the inhibition at 10 µM was 15%.

Regarding `O=C1CCc2cc(OCC3CC(c4c(F)cccc4Cl)=NO3)ccc2N1` (stereo not shown) [TR-G150, 6-((3-(2-chloro-6-fluorophenyl)-4,5-dihydroisoxazol-5-yl)methoxy)-3,4-dihydroquinolm-2(1H)-one], in test [1] (10 µM, two days), the activity at 10 µM stood at 79% and the inhibition at 10 µM turned out to be 21%. Also, in the test on U87-MG human glioma cell (10 µM, two days), the activity at 10 µM amounted to 97% and the inhibition at 10 µM was found to be 3%.

Consider `O=C1CCc2cc(OCCCCc3nnnn3C3CCCCC3)ccc2N1` [Cilostazol, reference compound], for which, in test [1] (reference drugs), the “Inhibition (%)” value amounted to 12% and the “Proliferation (%)” value was determined as 88%. Further, in the test with U87-MG human glioma cell (reference drugs), the “Inhibition (%)” value is listed as 22% and the “Proliferation (%)” value is given as 78%.

Consider `O=C1CCc2cc(OC(=O)Nc3ccccc3Cl)ccc2N1` [TR-G096, 2-oxo-1,2,3,4-tetrahydroquinolin-6-yl (2-chlorophenyl)carbamate], for which, in test [1] (10 µM, two days), the activity at 10 µM came out at 70% and the inhibition at 10 µM worked out at 30%. Further, in the test on U87-MG human glioma cell (10 µM, two days), the activity at 10 µM amounted to 75% and the inhibition at 10 µM amounted to 25%.

As to `CC(=O)c1ccc(NC(=O)COc2ccc3c(c2)CCC(=O)N3)cc1` [TR-G064, N-(4-acetylphenyl)-2-((2-oxo-1,2,3,4-tetrahydroquinolin-6-yl)oxy)acetamide], the activity at 10 µM in test [1] (10 µM, two days) turned out to be 78%; in the test with U87-MG human glioma cell (10 µM, two days), 70%. The inhibition at 10 µM is 22% in test [1] (10 µM, two days) and 30% in the test with U87-MG human glioma cell (10 µM, two days).

With `COc1ccc(/C=N/NC(=O)COc2ccc3c(c2)CCC(=O)N3)cc1` [TR-G026, (E)-N'-(4-methoxybenzylidene)-2-((2-oxo-1,2,3,4-tetrahydroquinolin-6-yl)oxy)acetohydrazide], in test [1] (10 µM, two days), the activity at 10 µM is 90% and the inhibition at 10 µM amounted to 10%. Further, in the test with U87-MG human glioma cell (10 µM, two days), the activity at 10 µM came out at 92% and the inhibition at 10 µM stood at 8%.

Consider `CC(=O)c1ccc(-n2cc(COc3ccc4c(c3)CCC(=O)N4)nn2)cc1` [TR-G093, 6-((1-(4-acetylphenyl)-1H-1,2,3-triazol-4-yl)methoxy)-3,4-dihydroquinolin-2(1H)-one], for which the activity at 10 µM in test [1] (10 µM, two days) was determined as 63%; in the test with U87-MG human glioma cell (10 µM, two days), 55%. The inhibition at 10 µM amounted to 38% in test [1] (10 µM, two days) and 45% in the test on U87-MG human glioma cell (10 µM, two days).

`COc1ccc(C(=O)Oc2ccc3c(c2)CCC(=O)N3)c(OC)c1` [TR-G009, 2-oxo-1,2,3,4-tetrahydroquinolin-6-yl 2,4-dimethoxybenzoate]: the activity at 10 µM in test [1] (10 µM, two days) stood at 87%; with U87-MG human glioma cell (10 µM, two days) it was 72%. Moreover, the inhibition at 10 µM in test [1] (10 µM, two days) stood at 13%; in the test on U87-MG human glioma cell (10 µM, two days) it was 28%.

As to `CCCc1ccc(/C=N/NC(=O)COc2ccc3c(c2)CCC(=O)N3)cc1` [TR-G028, (E)-2-((2-oxo-1,2,3,4-tetrahydroquinolin-6-yl)oxy)-N'-(4-propylbenzylidene)acetohydrazide], in test [1] (10 µM, two days), the activity at 10 µM amounted to 106% and the inhibition at 10 µM is -6%. Also, in the test with U87-MG human glioma cell (10 µM, two days), the activity at 10 µM was found to be 64% and the inhibition at 10 µM stood at 36%.

With `O=C1CCc2cc(OC(=O)c3cccc(F)c3)ccc2N1` [TR-G139, 2-oxo-1,2,3,4-tetrahydroquinolin-6-yl 3-flurobenzoate], in test [1] (10 µM, two days), the activity at 10 µM is 83% and the inhibition at 10 µM stood at 17%. In the test with U87-MG human glioma cell (10 µM, two days), the activity at 10 µM turned out to be 71% and the inhibition at 10 µM was determined as 29%.

In the case of `COc1ccccc1NC(=O)Oc1ccc2c(c1)CCC(=O)N2` [TR-G132, 2-oxo-1,2,3,4-tetrahydroquinolin-6-yl (2-methoxyphenyl)carbamate], in test [1] (10 µM, two days), the activity at 10 µM turned out to be 73% and the inhibition at 10 µM stood at 27%. In the test on U87-MG human glioma cell (10 µM, two days), the activity at 10 µM amounted to 78% and the inhibition at 10 µM stood at 22%.

As for `O=C1CCc2cc(OCC(=O)Oc3ccccc3)ccc2N1` [TR-G004, phenyl 2-((2-oxo-1,2,3,4-tetrahydroquinolin-6-yl)oxy)acetate], in test [1] (10 µM, two days), the activity at 10 µM was determined as 88% and the inhibition at 10 µM stood at 12%. For the same compound, in the test on U87-MG human glioma cell (10 µM, two days), the activity at 10 µM amounted to 73% and the inhibition at 10 µM stood at 27%.

As to `CN1C(=O)/C(=N\NC(=O)COc2ccc3c(c2)CCC(=O)N3)c2cc(F)ccc21` [TR-G047, (Z)-N'-(5fluoro-1-methyl-2-oxoindolin-3-ylidene)-2-((2-oxo-1,2,3,4-tetrahydroquinolin-6-yl)oxy)acetohydrazide], in test [1] (10 µM, two days), the activity at 10 µM was 62% and the inhibition at 10 µM was 38%. Moreover, in the test with U87-MG human glioma cell (10 µM, two days), the activity at 10 µM was 77% and the inhibition at 10 µM amounted to 23%.

Regarding `O=C1CCc2cc(OCCCN3C(=O)c4ccccc4C3=O)ccc2N1` [TR-G049, 2-(3-((2-oxo-1,2,3,4-tetrahydroquinolin-6-yl)oxy)propyl)isoindoline-1,3-dione], in test [1] (10 µM, two days), the “Cell Proliferation (%)” value was 63% and the inhibition at 10 µM worked out at 37%. Further, in the test with U87-MG human glioma cell (10 µM, two days), the “Cell Proliferation (%)” value is 76% and the inhibition at 10 µM stood at 24%.

On to `C=CCOC(=O)N1C(=O)CCc2cc(OCCCCc3nnnn3C3CCCCC3)ccc21` [TR-G114, Allyl 6-(4-(1-cyclohexyl-1H-tetrazol-5-yl)butoxy)-2-oxo-3,4-dihydroquinoline-1(2H)-carboxylate], for which, in test [1] (10 µM, two days), the activity at 10 µM is 85% and the inhibition at 10 µM was determined as 15%. Further, in the test on U87-MG human glioma cell (10 µM, two days), the activity at 10 µM is 86% and the inhibition at 10 µM amounted to 14%.

Take “2-oxo-1,2,3,4-tetrahydroquinolin-6-yl dimethylcarbamate [TR-G005]”: in test [1] (10 µM, two days), the “Cell Proliferation (%)” value came out at 77% and the “Inhibition (%)” value is 23%. Moreover, in the test on U87-MG human glioma cell (10 µM, two days), the “Cell Proliferation (%)” value is listed as 77% and the “Inhibition (%)” value is given as 23%.

Take `O=C(COc1ccc2c(c1)CCC(=O)N2)N/N=C1\C(=O)Nc2ccccc21` [TR-G038, (Z)-2-((2-oxo-1,2,3,4-tetrahydroquinolin-6-yl)oxy)-N'-(2-oxoindolin-3-ylidene)acetohydrazide]: in test [1] (10 µM, two days), the activity at 10 µM is 95% and the inhibition at 10 µM amounted to 5%. Moreover, in the test with U87-MG human glioma cell (10 µM, two days), the activity at 10 µM came to 71% and the inhibition at 10 µM is 30%.

`O=C1CCc2cc(OC(=O)CCl)ccc2N1` [TR-G016, 2-oxo-1,2,3,4-tetrahydroquinolin-6-yl 2-chloroacetate]: the activity at 10 µM in test [1] (10 µM, two days) stood at 95%; in the test with U87-MG human glioma cell (10 µM, two days), 78%. Moreover, the inhibition at 10 µM turned out to be 5% in test [1] (10 µM, two days) and 22% with U87-MG human glioma cell (10 µM, two days).

As for `O=C1CCc2cc(OC(=O)N3CCCC3)ccc2N1` [TR-G061, 2-oxo-1,2,3,4-tetrahydroquinolin-6-yl pyrrolidine-1-carboxylate], in test [1] (10 µM, two days), the activity at 10 µM was found to be 92% and the inhibition at 10 µM was 8%. Moreover, in the test on U87-MG human glioma cell (10 µM, two days), the activity at 10 µM stood at 84% and the inhibition at 10 µM came out at 16%.

Consider `CN1CCN(c2ccc(NC(=O)COc3ccc4c(c3)CCC(=O)N4)cc2)CC1` [TR-G043, N-(4-(4-methylpiperazin-1-yl)phenyl)-2-((2-oxo-1,2,3,4-tetrahydroquinolin-6-yl)oxy)acetamide], for which, in test [1] (10 µM, two days), the activity at 10 µM stood at 74% and the inhibition at 10 µM was 26%. In the test with U87-MG human glioma cell (10 µM, two days), the activity at 10 µM was 73% and the inhibition at 10 µM was 27%.

For `O=C(COc1ccc2c(c1)CCC(=O)N2)N/N=C/C1CCCCC1` [TR-G029, (E)-N'-(cyclohexylmethylene)-2-((2-oxo-1,2,3,4-tetrahydroquinolin-6-yl)oxy)acetohydrazide], in test [1] (10 µM, two days), the activity at 10 µM is 68% and the inhibition at 10 µM stood at 32%. Moreover, in the test with U87-MG human glioma cell (10 µM, two days), the activity at 10 µM was determined as 82% and the inhibition at 10 µM was 18%.

As to `C=CC(=O)Oc1ccc2c(c1)CCC(=O)N2` [TR-G039, 2-oxo-1,2,3,4-tetrahydroquinolin-6-yl acrylate], in test [1] (10 µM, two days), the activity at 10 µM worked out at 75% and the inhibition at 10 µM was 25%. In the test with U87-MG human glioma cell (10 µM, two days), the activity at 10 µM was found to be 59% and the inhibition at 10 µM worked out at 41%.

Turning to `O=C1CCc2cc(OCCCBr)ccc2N1` [TR-G074, 6-(3-bromopropoxy)-3,4-dihydroquinolin-2(1H)-one], in test [1] (10 µM, two days), the “Cell Proliferation (%)” value worked out at 81% and the inhibition at 10 µM came to 19%. For the same compound, in the test on U87-MG human glioma cell (10 µM, two days), the “Cell Proliferation (%)” value is on record as 85% and the inhibition at 10 µM was 15%.

On to `O=C1CCc2cc(OC(=O)Nc3ccccc3C(F)(F)F)ccc2N1` [TR-G137, 2-oxo-1,2,3,4-tetrahydroquinolin-6-yl (2-(trifluoromethyl)phenyl)carbamate], for which, in test [1] (10 µM, two days), the activity at 10 µM was 60% and the inhibition at 10 µM was 40%. For the same compound, in the test on U87-MG human glioma cell (10 µM, two days), the activity at 10 µM was 73% and the inhibition at 10 µM is 27%.
